Results on 3 compounds are retold here after ChEMBL document CHEMBL1146357, “Antidepressant-like profile of action of two 4-amine derivatives of 10,11-dihydro-5H-dibenzo [a,d] cycloheptane in mice evaluated in the forced swimming test” (2007).

Common to all, as to assay type: functional
Common to all, as to conditions: route intraperitoneal

Test [1] relates to Mus musculus. The test can be described thus: Effect on motor co-ordination in Swiss mouse assessed as number of falls at 30 mg/kg, ip after 10 days by Rota-rod test.
The subject of test [2] is Mus musculus. The experiment in a line: Antidepressant activity in Swiss mouse assessed as immobility time at 15 mg/kg, ip thrice a day by 5-mins swim test.
Test [3] relates to Mus musculus. The test can be described thus: Antidepressant activity in Swiss mouse assessed as immobility time at 5 mg/kg, ip thrice a day by 5-mins swim test.
For test [4], the system named is Mus musculus. The test can be described thus: Antidepressant activity in Swiss mouse assessed as immobility time at 50 mg/kg, ip thrice a day by 5-mins swim test.
Test [5] deals with Mus musculus. The experiment in a line: Antidepressant activity in Swiss mouse assessed as immobility time at 30 mg/kg/day, ip after 10 days by 5-mins swim test.
Test [6] concerns Mus musculus. The experiment in a line: Antidepressant activity in Swiss mouse assessed as immobility time at 1 mg/kg, ip thrice a day by 5-mins swim test.
The test system of test [7] is Mus musculus. The experiment in a line: Antidepressant activity in Swiss mouse assessed as reduction in immobility time at 30 mg/kg/day, ip after 10 days by 5-mins swim test. Set-up: scale not given: the % may be the effect or the level left.
Test [8] concerns Mus musculus. The experiment in a line: Effect on motor co-ordination in Swiss mouse assessed as time on rotating bar at 30 mg/kg, ip after 10 days by Rota-rod test.
Test [9] has as its system Mus musculus. The experiment in a line: Antidepressant activity in Swiss mouse assessed as immobility time at 30 mg/kg, ip thrice a day by 5-mins swim test.
Test [10] concerns Mus musculus. The experiment in a line: Antidepressant activity in Swiss mouse assessed as immobility time at 50 mg/kg/day, ip after 10 days by 5-mins swim test.
Test [11] has as its system Mus musculus. The test can be described thus: Effect on motor co-ordination in Swiss mouse assessed as number of falls at 50 mg/kg, ip after 10 days by Rota-rod test.
Test [12] has as its system Mus musculus. The test can be described thus: Antidepressant activity in Swiss mouse assessed as immobility time at 100 mg/kg, ip thrice a day by 5-mins swim test.
Test [13] deals with Mus musculus. The test can be described thus: Effect on motor co-ordination in Swiss mouse assessed as time on rotating bar at 50 mg/kg, ip after 10 days by Rota-rod test.
Test [14] has as its system Mus musculus. The experiment in a line: Antidepressant activity in Swiss mouse assessed as reduction in immobility time at 50 mg/kg/day, ip after 10 days by 5-mins swim test. Set-up: scale not given: the % may be the effect or the level left.
Test [15] has as its system Mus musculus. The experiment in a line: Effect on motor co-ordination in Swiss mouse assessed as number of falls at 15 mg/kg, ip after 10 days by Rota-rod test.
Test [16] deals with Mus musculus. The experiment in a line: Effect on motor co-ordination in Swiss mouse assessed as time on rotating bar at 15 mg/kg, ip after 10 days by Rota-rod test.

`c1ccc2c(c1)CCc1cccc3c1C2=NCCN3`: the results for the Activity in the test with Mus musculus [1] and with Mus musculus [7] were 0.4 and 15%, respectively. Besides, the Time in the test on Mus musculus [2] was found to be 186.57 s; in the test with Mus musculus [3], 197 s; with Mus musculus [4], 199.25 s; in the test with Mus musculus [5], 186.4 s; in the test on Mus musculus [6] it was 215 s; with Mus musculus [8] it was 58.6 s. In the test on Mus musculus [9], the Time is on record as 169.92 s.
Turning to `CN(C)CCCNc1cccc2c1C(=O)c1ccccc1CC2`, the Time in the test on Mus musculus [10] is 190.33 s; in the test on Mus musculus [2], 187.1 s; in the test with Mus musculus [3], 220.22 s; in the test with Mus musculus [4], 132 s; in the test on Mus musculus [12], 206.38 s; in the test on Mus musculus [13], 59.5 s. Further, in the test on Mus musculus [9], the Time is listed as 169.31 s. For the same compound, the Activity with Mus musculus [11] is recorded as 0.5; in the test with Mus musculus [14] it was 13%.
`CN(C)CCCN1c2ccccc2CCc2ccccc21` [IMIPRAMINE]: the values for the Time with Mus musculus [2] and with Mus musculus [16] were 137.33 s and 58.11 s, respectively. Moreover, the Activity with Mus musculus [15] was 0.83.
